How the values were obtained:
[1] = target: Muscarinic acetylcholine receptor; assay: Inhibition of radioligand [3H]QNB binding to muscarinic acetylcholine receptor in the rat forebrain in the presence of zinc
Mus musculus [2] = assay: Antagonistic activity against scopolamine-induced behavioral deficits in mice by subcutaneous administration at a concentration of 2.5 mg/kg; assay type: functional
[3] = target: Muscarinic acetylcholine receptor; assay: Inhibition of radioligand [3H]QNB binding (competitive inhibition) to muscarinic acetylcholine receptor in the rat forebrain in the absence of zinc
Mus musculus [4] = assay: Evaluated for the prevention of TBZ ptosis by intraperitoneal administration in mice; assay type: functional; conditions: ip
Mus musculus [5] = assay: Antagonistic activity against scopolamine-induced behavioral deficits in mice by subcutaneous administration at a concentration of 5.0 mg/kg; assay type: functional
Mus musculus [6] = assay: Antagonistic activity against scopolamine-induced behavioral deficits in mice by subcutaneous administration at a concentration of 1.25 mg/kg; assay type: functional
Mus musculus [7] = assay: Antagonistic activity against scopolamine-induced behavioral deficits in mice by subcutaneous administration at a concentration of 0.31 mg/kg; assay type: functional
Mus musculus [8] = assay: Antagonistic activity against scopolamine-induced behavioral deficits in mice by subcutaneous administration at a concentration of 0.63 mg/kg; assay type: functional
Mus musculus [9] = assay: Antagonistic activity against scopolamine-induced behavioral deficits in mice by subcutaneous administration at a concentration of 0.16 mg/kg; assay type: functional
Mus musculus [10] = assay: (§1) Antagonistic activity against scopolamine-induced behavioral deficits in mice by subcutaneous administration at a concentration of 5 mg/kg; assay type: functional
Mus musculus [11] = assay: as §1; assay type: functional; remark: listed apart in the source
Mus musculus [12] = assay: Antagonistic activity against scopolamine-induced behavioral deficits in mice by subcutaneous administration at a concentration of 0.04 mg/kg; assay type: functional
Mus musculus [13] = assay: Antagonistic activity against scopolamine-induced behavioral deficits in mice by subcutaneous administration at a concentration of 0.02 mg/kg; assay type: functional

## CCCN(c1ccncc1)n1cccc1Cl
[1]
  IC50: 8.6 µM
Mus musculus [2]
  Response: 27%
[3]
  IC50: 2.6 µM
Mus musculus [4]
  ED50: > 20 mg/kg

## CN(c1ccncc1)n1cccc1C=O
Mus musculus [5]
  Response: 31%
[1]
  IC50: 52 µM
Mus musculus [6]
  Response: 60%
Mus musculus [7]
  Response: 53%
Mus musculus [8]
  Response: 27%
Mus musculus [9]
  Response: 50%
Mus musculus [2]
  Response: 50%
[3]
  IC50: 24 µM
Mus musculus [4]
  ED50: > 20 mg/kg

## CN(C)CCC=C1c2ccccc2CCc2ccccc21 [AMITRIPTYLINE]
[1]
  IC50: 0.3 µM
Mus musculus [4]
  ED50: 1.5 mg/kg

## CC(O)c1ccn(N(C)c2ccncc2)c1 (centres undefined)
[1]
  IC50: 24 µM
Mus musculus [6]
  Response: 27%
Mus musculus [7]
  Response: 20%
Mus musculus [9]
  Response: 20%
[3]
  IC50: 11 µM
Mus musculus [4]
  ED50: 10 mg/kg

## CCCN(c1ccncc1)n1ccc(C=O)c1
[1]
  IC50: 138 µM
[3]
  IC50: 11 µM
Mus musculus [4]
  ED50: > 20 mg/kg

## CCc1cccn1N(C)c1ccncc1
Mus musculus [5]
  Response: 27%
[1]
  IC50: 22 µM
Mus musculus [8]
  Response: 20%
[3]
  IC50: 6.4 µM
Mus musculus [4]
  ED50: > 20 mg/kg

## CN(c1ccncc1)n1cccc1CCc1ccccc1
[1]
  IC50: 8.1 µM
Mus musculus [7]
  Response: 33%
[3]
  IC50: 3 µM
Mus musculus [4]
  ED50: > 20 mg/kg

## CN(c1ccncc1)n1cccc1/C=C/c1ccccc1
Mus musculus [5]
  Response: 33%
[1]
  IC50: 17 µM
Mus musculus [2]
  Response: 20%
[3]
  IC50: 1.6 µM
Mus musculus [4]
  ED50: > 20 mg/kg

## CCCN(c1ccncc1)n1cccc1C=O
[1]
  IC50: 51 µM
[3]
  IC50: 14 µM
Mus musculus [4]
  ED50: > 20 mg/kg

## CC(O)c1cccn1N(C)c1ccncc1 (centres undefined)
[1]
  IC50: 173 µM
[3]
  IC50: 23 µM
Mus musculus [4]
  ED50: > 20 mg/kg

## CC(=O)N(c1ccncc1)n1cccc1
[1]
  IC50: > 1000 µM

## CN(c1ccncc1)n1cccc1C#N
Mus musculus [5]
  Response: 20%
[1]
  IC50: 295 µM
Mus musculus [6]
  Response: 40%
[3]
  IC50: 24 µM
Mus musculus [4]
  ED50: > 20 mg/kg

## c1ccn(Nc2ccncc2)c1
Mus musculus [10]
  Response: 36%
[1]
  IC50: 184 µM
Mus musculus [7]
  Response: 21%
Mus musculus [8]
  Response: 21%
Mus musculus [2]
  Response: 47%
[3]
  IC50: 43 µM
Mus musculus [4]
  ED50: > 20 mg/kg

## CN(c1ccncc1)n1cccc1
Mus musculus [10]
  Response: 1%
[1]
  IC50: 70 µM
Mus musculus [11]
  Response: 29%
[3]
  IC50: 13 µM
Mus musculus [4]
  ED50: > 20 mg/kg

## CCCCN(c1ccncc1)n1cccc1
[1]
  IC50: 12.5 µM
Mus musculus [8]
  Response: 20%
[3]
  IC50: 4 µM
Mus musculus [4]
  ED50: > 20 mg/kg

## CN(c1ccncc1)n1cccc1Cl
[1]
  IC50: 43 µM
[3]
  IC50: 6.9 µM
Mus musculus [4]
  ED50: > 20 mg/kg

## O=Cc1cccn1Nc1ccncc1
[1]
  IC50: 721 µM
Mus musculus [7]
  Response: 27%
Mus musculus [8]
  Response: 43%
Mus musculus [9]
  Response: 20%
[3]
  IC50: 86 µM
Mus musculus [4]
  ED50: > 20 mg/kg

## c1ccc(CN(c2ccncc2)n2cccc2)cc1
[1]
  IC50: 13.5 µM
Mus musculus [9]
  Response: 20%
[3]
  IC50: 3.5 µM
Mus musculus [4]
  ED50: > 20 mg/kg

## CCN(c1ccncc1)n1cccc1Cl
[1]
  IC50: 33 µM
Mus musculus [6]
  Response: 36%
Mus musculus [8]
  Response: 20%
Mus musculus [2]
  Response: 27%
[3]
  IC50: 5.4 µM
Mus musculus [4]
  ED50: > 20 mg/kg

## CCN(c1ccncc1)n1cccc1
[1]
  IC50: 120 µM
[3]
  IC50: 9.5 µM
Mus musculus [4]
  ED50: > 20 mg/kg

## CN(c1ccncc1)n1cccc1CO
[1]
  IC50: 39 µM
[3]
  IC50: 26 µM
Mus musculus [4]
  ED50: > 20 mg/kg

## Clc1cccn1Nc1ccncc1
[1]
  IC50: 76.2 µM
[3]
  IC50: 13 µM
Mus musculus [4]
  ED50: > 20 mg/kg

## C=CCN(c1ccncc1)n1cccc1
[1]
  IC50: 27 µM
Mus musculus [8]
  Response: 20%
Mus musculus [9]
  Response: 20%
[3]
  IC50: 6.9 µM
Mus musculus [4]
  ED50: > 20 mg/kg

## CN(c1ccncc1)n1ccc(C=O)c1
Mus musculus [5]
  Response: 47%
[1]
  IC50: 185 µM
Mus musculus [6]
  Response: 29%
Mus musculus [7]
  Response: 20%
Mus musculus [8]
  Response: 33%
[3]
  IC50: 33 µM
Mus musculus [4]
  ED50: > 20 mg/kg

## CCCN(c1ccncc1)n1cccc1
[1]
  IC50: 21.5 µM
Mus musculus [8]
  Response: 27%
Mus musculus [9]
  Response: 33%
Mus musculus [2]
  Response: 27%
[3]
  IC50: 6.5 µM
Mus musculus [4]
  ED50: > 20 mg/kg

## C#CCN(c1ccncc1)n1cccc1
Mus musculus [12]
  Response: 27%
[1]
  IC50: 76.4 µM
Mus musculus [7]
  Response: 27%
Mus musculus [9]
  Response: 47%
[3]
  IC50: 9 µM
Mus musculus [13]
  Response: 20%
Mus musculus [4]
  ED50: > 20 mg/kg
